Assay results as given in the NIST ThermoML archive (doi:10.1016/j.jct.2012.05.006).
Numbers after ± are expanded uncertainties.

Details: 101.33 kPa, Liquid, Vibrating tube method

## CCCCCCCC[n+]1ccn(C)c1.N#C[S-] [1-methyl-3-octyl-1H-imidazolium thiocyanate]
288.15 K
  mass density: 1014 ± 0.2 kg/m3
293.15 K
  mass density: 1011.1 ± 0.2 kg/m3
298.15 K
  mass density: 1008.3 ± 0.2 kg/m3
303.15 K
  mass density: 1005.4 ± 0.2 kg/m3
308.15 K
  mass density: 1002.6 ± 0.2 kg/m3
313.15 K
  mass density: 999.7 ± 0.2 kg/m3
318.15 K
  mass density: 996.7 ± 0.2 kg/m3
323.15 K
  mass density: 994.1 ± 0.2 kg/m3
328.15 K
  mass density: 991.3 ± 0.2 kg/m3
333.15 K
  mass density: 988.4 ± 0.2 kg/m3
338.15 K
  mass density: 985.6 ± 0.2 kg/m3
343.15 K
  mass density: 982.9 ± 0.2 kg/m3
